Consider 9 compounds from US20120202690A1, “HERBICIDAL COMPOUNDS” (SYNGENTA LIMITED, priority 2009, published 2012).

What all share (format): in vivo
Test [1] relates to Alopecurus myosuroides (ALOMY). Nature of the test: Pre-emergence biological efficacy, glasshouse, 1000 g/ha, evaluated after 13 days (100=total damage to plant; 0=no damage to plant). The conditions noted are these: Alopecurus myosuroides, 312 h, rate 1,000 g/ha, read-out: Percentage damage caused to weed species, pre-emergence, ALOMY. On the procedure: (§1) Seeds of Alopecurus myosuroides (ALOMY), Setaria faberi (SETFA), Echinochloa crus-galli (ECHCG), Solanum nigrum (SOLNI), Amaranthus retroflexus (AMARE) and Ipomoea hederaceae (IPOHE) were sown in standard soil in pots. […] The test plants were then grown under controlled conditions in the glasshouse (at 24/16° C., day/night; 14 hours light; 65% humidity) and watered twice daily. […]

The subject of test [2] is Amaranthus retroflexus (AMARE). The test is described as above. To be noted: Amaranthus retroflexus, 312 h, rate 1,000 g/ha, read-out: Percentage damage caused to weed species, pre-emergence, AMARE. On the procedure: as §1
Test [3] concerns Echinochloa crus-galli (ECHCG). The description is as above. The conditions noted are these: Echinochloa crus-galli, 312 h, rate 1,000 g/ha, read-out: Percentage damage caused to weed species, pre-emergence, ECHCG. On the procedure:
as §1

Test [4] has as its system Ipomoea hederaceae (IPOHE). The test is described as above. The conditions noted are these: Ipomoea, 312 h, rate 1,000 g/ha, read-out: Percentage damage caused to weed species, pre-emergence, IPOHE. On the procedure: as §1
The subject of test [5] is Setaria faberi (SETFA). The test is described as above. To be noted: Setaria faberi, 312 h, rate 1,000 g/ha, read-out: Percentage damage caused to weed species, pre-emergence, SETFA. On the procedure: as §1
Test [6] relates to Solanum nigrum (SOLNI). The description is as above. To be noted: Solanum nigrum, 312 h, rate 1,000 g/ha, read-out: Percentage damage caused to weed species, pre-emergence, SOLNI. On the procedure: as §1
In test [7] the test system is Alopecurus myosuroides (ALOMY). The test is described as follows: Post-emergence biological efficacy, glasshouse, 500 or 1000 g/ha, evaluated after 13 days (100=total damage to plant; 0=no damage to plant). To be noted: Alopecurus myosuroides, 312 h, rate 1,000 g/ha, read-out: Percentage damage caused to weed species, post-emergence, ALOMY. On the procedure:
(§2) Seeds of Alopecurus myosuroides (ALOMY), Setaria faberi (SETFA), Echinochloa […]), Solanum nigrum (SOLNI), Amaranthus retroflexus (AMARE) and Ipomoea hederaceae (IPOHE) were sown in standard soil in pots. […] The test plants were then grown on under controlled conditions in a glasshouse (at 24/16° C., day/night; 14 hours light; 65% humidity) and watered twice daily. […]

Test [8] concerns Amaranthus retroflexus (AMARE). The description is as above. To be noted: Amaranthus retroflexus, 312 h, rate 1,000 g/ha, read-out: Percentage damage caused to weed species, post-emergence, AMARE. On the procedure:
as §2

Test [9] deals with Echinochloa crusgaffi (ECHCG). The test is described as above. To be noted: Echinochloa, 312 h, rate 1,000 g/ha, read-out: Percentage damage caused to weed species, post-emergence, ECHCG. On the procedure: as §2
Test [10] relates to Ipomoea hederaceae (IPOHE). The description is as above. The conditions noted are these: Ipomoea, 312 h, rate 1,000 g/ha, read-out: Percentage damage caused to weed species, post-emergence, IPOHE. On the procedure:
as §2

Test [11] deals with Setaria faberi (SETFA). The test is described as above. The conditions noted are these: Setaria faberi, 312 h, rate 1,000 g/ha, read-out: Percentage damage caused to weed species, post-emergence, SETFA. On the procedure: as §2
Test [12] has as its system Solanum nigrum (SOLNI). The description is as above. The conditions noted are these: Solanum nigrum, 312 h, rate 1,000 g/ha, read-out: Percentage damage caused to weed species, post-emergence, SOLNI. On the procedure:
as §2

With `COc1c(Cl)ccc(-c2nc(C(=O)O)c3c(C)c[nH]c3n2)c1F` [Compound 1-63, 4-carboxy-2-(4-chloro-2-fluoro-3-methoxyphenyl)-5-methyl-7H-pyrrolo[2,3-d]pyrimidine], the pest or weed control at 1000 g/ha in [1] was determined as 30%; in test [2] it was 70%; in [3] it was 20%; in [4], 80%; in test [5], 10%; in test [6] it was 90%. Moreover, the pest or weed control at 1000 g/ha was 40% in [7]; 100% in test [8]; 60% in test [9]; 70% in [10]; 60% in test [11]; 100% in [12].
Regarding `COC(=O)c1nc(-c2ccc(Cl)c(OC)c2F)nc2[nH]cc(C)c12` [Compound 1-64, 2-(4-chloro-2-fluoro-3-methoxyphenyl)-4-methoxycarbonyl-5-methyl-7H-pyrrolo[2,3-d]pyrimidine], the pest or weed control at 1000 g/ha in [1] amounted to 20%; in test [2], 100%; in test [3], 30%; in test [4], 100%; in test [5], 10%; in test [6], 70%. Further, the pest or weed control at 1000 g/ha turned out to be 20% in [7]; 100% in [8]; 70% in [9]; 70% in test [10]; 70% in [11]; 80% in test [12].
For the compound `COc1c(Cl)ccc(-c2nc(C(=O)O)c3cc(C)[nH]c3n2)c1F` [Compound 1-65], the pest or weed control at 1000 g/ha in test [1], in test [2], in [3], in test [4], in test [5] and in test [6] was 0% throughout. In addition, the pest or weed control at 1000 g/ha in test [7] was 0%; in test [8], 40%; in test [9], 40%; in [10] it was 60%; in test [11], 10%; in test [12] it was 60%.
On to `COC(=O)c1nc(-c2ccc(Cl)c(OC)c2F)nc2[nH]c(C)cc12` [Compound 1-66, 2-(4-chloro-2-fluoro-3-methoxyphenyl)-4-methoxycarbonyl-6-methyl-7H-pyrrolo[2,3-d]pyrimidine], for which the pest or weed control at 1000 g/ha in test [1] amounted to 20%; in [2], 100%; in [3], 40%; in test [4], 90%; in test [5], 70%; in test [6], 100%. Further, the pest or weed control at 1000 g/ha in test [7] was 80%; in test [8], 100%; in test [9], 80%; in [10], 80%; in test [11], 80%; in test [12] it was 100%.
`COC(=O)c1nc(-c2ccc(Cl)c(OC)c2F)nc2[nH]c(C)c(C)c12` [Compound 1-68, 2-(4-Chloro-2-fluoro-3-methoxyphenyl)-5,6-dimethyl-4-methoxycarbonyl-7H-pyrrolo[2,3-d]pyrimidine]: the pest or weed control at 1000 g/ha in test [1], in test [2], in test [3], in test [4], in [5] and in test [6] was 0% in each case. The pest or weed control at 1000 g/ha in test [7] is 0%; in test [8] it was 10%; in [9], 10%; in test [10] it was 60%; in [11] it was 0%; in test [12], 30%.
Consider `CCOC(=O)c1nc(-c2ccc(Cl)c(OC)c2F)nc2[nH]cc(C)c12` [Compound 1-75, 2-(4-Chloro-2-fluoro-3-methoxyphenyl)-4-ethoxycarbonyl-5-methyl-7H-pyrrolo[2,3-d]pyrimidine], for which the pest or weed control at 1000 g/ha in test [1], in test [2], in test [3], in test [4], in test [5] and in [6] was 0% in each case. Also, the pest or weed control at 1000 g/ha in test [7] came out at 0%; in [8], 40%; in test [9], 0%; in test [10] it was 70%; in test [11], 0%; in [12], 70%.
As to `CCCCCCCCOC(=O)c1nc(-c2ccc(Cl)c(OC)c2F)nc2[nH]cc(C)c12` [Compound 1-77, 2-(4-Chloro-2-fluoro-3-methoxyphenyl)-5-methyl-4-(n-octyloxycarbonyl)-7H-pyrrolo[2,3-d]pyrimidine], the pest or weed control at 1000 g/ha came out at 0% in test [1]; 0% in [2]; 0% in test [3]; 0% in test [4]; 10% in test [5]; 10% in test [6]. Also, the pest or weed control at 1000 g/ha is 0% in [7]; 10% in [8]; 0% in test [9]; 40% in test [10]; 10% in [11]; 70% in test [12].
For `COc1c(Cl)ccc(-c2nc(C(=O)OC(C)C)c3c(C)c[nH]c3n2)c1F` [Compound 1-78, 2-(4-Chloro-2-fluoro-3-methoxyphenyl)-4-isopropoxycarbonyl-5-methyl-7H-pyrrolo[2,3-d]pyrimidine], the pest or weed control at 1000 g/ha in test [1] turned out to be 0%; in test [2], 50%; in [3], 0%; in test [4], 20%; in [5] it was 0%; in [6], 40%. Besides, the pest or weed control at 1000 g/ha was found to be 0% in test [7]; 0% in [8]; 0% in test [9]; 70% in test [10]; 0% in test [11]; 60% in [12].
`CCCCCC(C)OC(=O)c1nc(-c2ccc(Cl)c(OC)c2F)nc2[nH]cc(C)c12` (stereo not drawn) [Compound 1-79, 2-(4-Chloro-2-fluoro-3-methoxyphenyl)-4-(hept-2-yloxycarbonyl)-5-methyl-7H-pyrrolo[2,3-d]pyrimidine]: the pest or weed control at 1000 g/ha in [1], in test [2], in test [3], in test [4], in test [5] and in [6] was 0% each time. Moreover, the pest or weed control at 1000 g/ha in test [7] was determined as 0%; in test [8], 10%; in test [9] it was 0%; in test [10], 20%; in [11], 0%; in test [12], 10%.
